# Test: Room temperature evaporation rate: rate of weight loss in a stream of 25° C. nitrogen relative to n-butyl acetate
# Format: physicochemical
# Conditions: not given
# Procedure: Most compounds released by manufacturing processes affect the environment in some manner. […] The room temperature evaporation rates of some of the ILs described in the present invention were compared to several well known compounds by measuring the rate of weight loss in a stream of 25° C. nitrogen relative to the rate of weight loss of n-butyl acetate under the same conditions.
row,Compound,Evaporation Rate (n-Butyl Acetate = 1)
1,"CCCCC(CC)C(=O)[O-].CCCCC(CC)C(=O)[O-].[Zn+2] (stereo not shown) [Zn(2eh)2, zinc (II) 2-ethylhexanoate]",<0.001
2,OCCO [ethylene glycol],<0.01
3,CCCCCC [hexane],8.9

# Same assay, conditions: rate of weight loss in a stream of 25° C. nitrogen, relative to n-butyl acetate under the same conditions
row,Compound,Evaporation Rate (n-Butyl Acetate = 1)
1,Cc1ccccc1 [toluene],1.9
2,CCCCO [n-Butanol],0.43
3,"CCCCC(CC)C(=O)O (stereo not shown) [H2eh, 2-ethylhexanoic acid]",0.003
4,CC(C)=O [acetone],14.4
5,CC(C)O [IPA],2.5
6,xylene,0.8
7,CCC(C)=O [methyl ethyl ketone],5.7

# Source: patent publication US20070129568A1, “Ionic liquids” (nGimat, Co., priority 2005, published 2007)
